The record followed here is patent US20230240332A1, “METHOD FOR PREPARING AMINO ACID GRANULE FROM FERMENTATION BROTH” (CJ CHEILJEDANG CORPORATION, priority 2020, published 2023).

A short description of this data set: Stability of tryptophan in fermentation broth with calcium added at molar ratio 0.4. The note with it: calcium added at molar ratio of 0.4; increase in pH. The class given is physicochemical. On the procedure:
, respectively, in the same manner as in Examples 1-1 to 1-3 except that a tryptophan-containing fermentation broth having the composition disclosed in Table 2 was used, and the pH was 8.8 and 9.0, respectively. The sample of Comparative Example 2 was prepared by concentrating the tryptophan-containing fermentation broth without adding calcium hydroxide to the tryptophan-containing fermentation broth. […] The fermentation broth to which the slurry was added was concentrated to a degree of concentration of 30% (w/w) in Example 1-4 and a degree of concentration of 35% (w/w) in Example 1-5. It was confirmed that the fermentation broth gelled and lost fluidity when concentrated to a higher degree of concentration. At this time, in the case of the fermentation broth to which a slurry was not added, only a degree of concentration of about 25.5% (w/w) was achieved.

In the case of `N[C@@H](Cc1c[nH]c2ccccc12)C(=O)O` [tryptophan], the decomposition of tryptophan entry was “decomposed into tryptamine, indole-acetate, and anthranilic acid”.
